Consider 19 molecules from patent US10899754B2, “Modulators of indoleamine 2,3-dioxygenase” (GLAXOSMITHKLINE INTELLECTUAL PROPERTY DEVELOPMENT LIMITED, priority 2016, dated 2021).

The target of data set [1] is indoleamine 2, 3-dioxygenase (IDO1) (Homo sapiens, UniProt P14902). The experiment in a line: IDO1 PBMC RapidFire MS assay (kynurenine detection by mass spectrometry). It is filed as cell-based. Further details: to induce the expression of indoleamine 2, 3-dioxygenase (IDO1); host or cells: human PBMC stimulated with IFN-gamma and LPS. To be noted: human PBMC stimulated with IFN-γ and LPS, 2 days, pIC50, read-out: PBMC PXC50 (converted). The procedure:
IDO1 PBMC RapidFire MS Assay
(§1) Compounds of the present invention were tested via high-throughput cellular assays utilizing detection of kynurenine via mass spectrometry and cytotoxicity as end-points. For the mass spectrometry and cytotoxicity assays, human peripheral blood mononuclear cells (PBMC) (PB003F; AllCells®, Alameda, Calif.) were stimulated with human interferon-γ (IFN-γ) (Sigma-Aldrich Corporation, St. Louis, Mo.) and lipopolysaccharide from Salmonella minnesota (LPS) (Invivogen, San Diego, Calif.) to induce the expression of indoleamine 2, 3-dioxygenase (IDO1). Compounds with IDO1 inhibitory properties decreased the amount of kynurenine produced by the cells via the tryptophan catabolic pathway. Cellular toxicity due to the effect of compound treatment was measured using CellTiter-Glo® reagent (CTG) (Promega Corporation, Madison, Wis.), which is based on luminescent detection of ATP, an indicator of metabolically active cells.
(§2) In preparation for the assays, test compounds were serially diluted 3-fold in DMSO from a typical top concentration of 1 mM or 5 mM and plated at 0.5 μL in 384-well, polystyrene, clear bottom, tissue culture treated plates with lids (Greiner Bio-One, Kremsmünster, Austria) to generate 11-point dose response curves. Low control wells (0% kynurenine or 100% cytotoxicity) contained either 0.5 μL of DMSO in the presence of unstimulated (−IFN-γ/−LPS) PBMCs for the mass spectrometry assay or 0.5 μL of DMSO in the absence of cells for the cytotoxicity assay, and high control wells (100% kynurenine or 0% cytotoxicity) contained 0.5 μL of DMSO in the presence of stimulated (+IFN-γ/+LPS) PBMCs for both the mass spectrometry and cytotoxicity assays.
(§3) Frozen stocks of PBMCs were washed and recovered in RPMI 1640 medium (Thermo Fisher Scientific, Inc., Waltham, Mass.) supplemented with 10% v/v heat-inactivated fetal bovine serum (FBS) (Thermo Fisher Scientific, Inc., Waltham, Mass.), and 1× penicillin-streptomycin antibiotic solution (Thermo Fisher Scientific, Inc., Waltham, Mass.). The cells were diluted to 1,000,000 cells/mL in the supplemented RPMI 1640 medium. 50 μL of either the cell suspension, for the mass spectrometry assay, or medium alone, for the cytotoxicity assay, were added to the low control wells, on the previously prepared 384-well compound plates, resulting in 50,000 cells/well or 0 cells/well respectively. IFN-γ and LPS were added to the remaining cell suspension at final concentrations of 100 ng/ml and 50 ng/ml respectively, and 50 μL of the stimulated cells were added to all remaining wells on the 384-well compound plates. The plates, with lids, were then placed in a 37° C., 5% CO2 humidified incubator for 2 days.
(§4) Following incubation, the 384-well plates were removed from the incubator and allowed to equilibrate to room temperature for 30 minutes. For the cytotoxicity assay, CellTiter-Glo® was prepared according to the manufacturer's instructions, and 40 μL were added to each plate well. After a twenty minute incubation at room temperature, luminescence was read on an EnVision® Multilabel Reader (PerkinElmer Inc., Waltham, Mass.). For the mass spectrometry assay, 10 μL of supernatant from each well of the compound-treated plates were added to 40 μL of acetonitrile, containing 10 μM of an internal standard for normalization, in 384-well, polypropylene, V-bottom plates (Greiner Bio-One, Kremsmünster, Austria) to extract the organic analytes. Following centrifugation at 2000 rpm for 10 minutes, 10 μL from each well of the acetonitrile extraction plates were added to 90 μL of sterile, distilled H2O in 384-well, polypropylene, V-bottom plates for analysis of kynurenine and the internal standard on the RapidFire 300 (Agilent Technologies, Santa Clara, Calif.) and 4000 QTRAP MS (SCIEX, Framingham, Mass.). MS data were integrated using Agilent Technologies' RapidFire Integrator software, and data were normalized for analysis as a ratio of kynurenine to the internal standard. […]

Data set [2] concerns human peripheral blood mononuclear cells (PBMC). The experiment in a line: PBMC cytotoxicity assay (CellTiter-Glo). It is filed as cell-based. Particulars: 2 days, pCC50. On the procedure: as §1, §2, §3, §4

indoleamine 2, 3-dioxygenase (IDO1), sequence (P14902 whole entry): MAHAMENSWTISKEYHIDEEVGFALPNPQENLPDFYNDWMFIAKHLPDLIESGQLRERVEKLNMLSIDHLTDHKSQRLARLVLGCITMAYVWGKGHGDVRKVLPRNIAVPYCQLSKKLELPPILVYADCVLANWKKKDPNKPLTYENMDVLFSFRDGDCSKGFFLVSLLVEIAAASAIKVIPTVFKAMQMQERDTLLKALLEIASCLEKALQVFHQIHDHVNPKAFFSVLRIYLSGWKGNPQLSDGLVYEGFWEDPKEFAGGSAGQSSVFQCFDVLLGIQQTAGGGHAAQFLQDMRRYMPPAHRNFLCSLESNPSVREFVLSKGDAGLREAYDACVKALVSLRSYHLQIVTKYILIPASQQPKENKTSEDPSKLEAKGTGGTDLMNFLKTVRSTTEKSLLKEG

With `CC(C)CN(c1ccc([C@H](C)CC(=O)O)cc1Nc1ccc(Cl)c(C#N)n1)C1CCOCC1` [Example 30, (R)-3-(3-((5-chloro-6-cyanopyridin-2-yl)amino)-4-(isobutyl(tetrahydro-2H-pyran-4-yl)amino)phenyl)butanoic Acid], the IC50 in data set [1] was 7.94 nM. For the same molecule, the “PBMC TOX PXC50” value in data set [2] is reported as less than 5.

For `CC(C)CN(c1ccc(C(C)NC(N)=O)cc1Nc1nc(C(F)(F)F)ns1)C1CCOCC1` (centres unmarked) [example 249, (1-{4-[(2-methylpropyl)(oxan-4-yl)amino]-3-{[3-(trifluoromethyl)-1,2,4-thiadiazol-5-yl]amino}phenyl}ethyl) urea], in data set [1], the IC50 was 20 nM. Further, in data set [2], the “PBMC TOX PXC50” value is reported as less than 5.

For `CO[C@H]1CC[C@@H](N(CC(C)C)c2ccc([C@H](C)CC(=O)O)cc2Nc2nc(C(F)(F)F)ns2)CC1` [Example 43, (R)-3-(4-(isobutyl((1s,4S)-4-methoxycyclohexyl)amino)-3-((3-(trifluoromethyl)-1,2,4-thiadiazol-5-yl)amino)phenyl)butanoic Acid], the IC50 in data set [1] is 0.631 nM. Moreover, the “PBMC TOX PXC50” value in data set [2] is less than 5.

On to `CC(C)CN(c1ccc([C@H](C)CC(=O)O)cc1Nc1n[nH]c(C#N)n1)C1CCCCC1` [Example 83, (R)-3-(3-((5-cyano-1H-1,2,4-triazol-3-yl)amino)-4-(cyclohexyl(isobutyl)amino)phenyl)butanoic Acid], for which the IC50 in data set [1] was 7.94 nM. For the same molecule, the “PBMC TOX PXC50” value in data set [2] was less than 5.

On to `COC(=O)N1CCC(N(CC(C)C)c2ccc([C@H](C)CC(=O)O)cc2Nc2nc(C(F)(F)F)ns2)CC1` [Example 66], for which the IC50 in data set [1] is 1.58 nM. Besides, the “PBMC TOX PXC50” value in data set [2] is 5.2.

With `CC(C)CN(c1ccc([C@H](C)CC(=O)O)cc1Nc1ccc(C(N)=O)nc1)C1CCOCC1` [example 239, (3R)-3-{3-[(6-carbamoylpyridin-3-yl)amino]-4-[(2-methylpropyl)(oxan-4-yl)amino]phenyl}butanoic acid], in data set [1], the IC50 is 25.1 nM. In addition, the “PBMC TOX PXC50” value in data set [2] is less than 5.

Take `CC(C)CN(c1ccc([C@H](C)CC(=O)O)cc1Nc1nc(C(F)(F)F)ns1)C1CCN(c2nc(C(F)(F)F)ns2)CC1` [Example 95, (R)-3-(4-(isobutyl(1-(3-(trifluoromethyl)-1,2,4-thiadiazol-5-yl)piperidin-4-yl)amino)-3-((3-(trifluoromethyl)-1,2,4-thiadiazol-5-yl)amino)phenyl)butanoic Acid]: in data set [1], the IC50 is 1.58 nM. Besides, the “PBMC TOX PXC50” value in data set [2] is reported as less than 5.

Consider `CC(C)CN(c1ccc([C@H](C)CC(=O)O)cc1Nc1nnc(C(N)=O)s1)C1CCOCC1` [example 261, (3R)-3-{3-[(5-carbamoyl-1,3,4-thiadiazol-2-yl)amino]-4-[(2-methylpropyl)(oxan-4-yl)amino]phenyl}butanoic acid], for which, in data set [1], the IC50 was 31.6 nM. Besides, the “PBMC TOX PXC50” value in data set [2] is less than 5.

Take `CNC(=O)c1c[nH]c(Nc2cc([C@H](C)CC(=O)O)ccc2N(CC(C)C)C2CCOCC2)n1` [example 232, (3R)-3-(3-{[4-(methylcarbamoyl)-1H-imidazol-2-yl]amino}-4-[(2-methylpropyl)(oxan-4-yl)amino]phenyl)butanoic acid]: the IC50 in data set [1] is 3160 nM. Moreover, the “PBMC TOX PXC50” value in data set [2] is reported as less than 5.

On to `CO[C@H]1CC[C@@H](N(CC(C)C)c2ccc([C@H](C)CC(=O)O)cc2Nc2nc(Cl)ns2)CC1` [Example 48, (R)-3-(3-((3-chloro-1,2,4-thiadiazol-5-yl)amino)-4-(isobutyl((1s,4S)-4-methoxycyclohexyl)amino)phenyl)butanoic Acid], for which the IC50 in data set [1] is 1 nM. For the same molecule, the “PBMC TOX PXC50” value in data set [2] is listed as less than 5.

On to `CC(C)CN(c1ccc([C@H](C)CC(=O)O)cc1Nc1ccc(Cl)c(F)n1)C1CCOCC1` [Example 14, (R)-3-(3-((5-chloro-6-fluoropyridin-2-yl)amino)-4-(isobutyl(tetrahydro-2H-pyran-4-yl)amino)phenyl)butanoic acid], for which the IC50 in data set [1] was 1.26 nM. Also, the “PBMC TOX PXC50” value in data set [2] is given as less than 5.

Turning to `CC(C)CN(c1ccc([C@H](C)CC(=O)O)cc1Nc1ccc(C#N)nc1)C1CCOCC1` [Example 13, (R)-3-(3-((6-cyanopyridin-3-yl)amino)-4-(isobutyl(tetrahydro-2H-pyran-4-yl)amino)phenyl)butanoic Acid], in data set [1], the IC50 is 1.26 nM. In addition, the “PBMC TOX PXC50” value in data set [2] was less than 5.

On to `CC(C)CN(CCCCCNC(=O)c1ccc(C2(C(F)(F)F)N=N2)cc1)c1ccc([C@H](C)CC(=O)O)cc1Nc1nc(C(F)(F)F)ns1` [example 255, (3R)-3-{4-[(2-methylpropyl)[5-({4-[3-(trifluoromethyl)-3H-diazirin-3-yl]phenyl}formamido)pentyl]amino]-3-{[3-(trifluoromethyl)-1,2,4-thiadiazol-5-yl]amino}phenyl}butanoic acid], for which, in data set [1], the IC50 was 20 nM. In data set [2], the “PBMC TOX PXC50” value is less than 4.3.

As to `CC(C)CN(c1ccc([C@H](C)CC(=O)O)cc1Nc1nc(Cl)ns1)C1CC2(CCC2)C1` [Example 98, (R)-3-(3-((3-chloro-1,2,4-thiadiazol-5-yl)amino)-4-(isobutyl(spiro[3.3]heptan-2-yl)amino)phenyl)butanoic Acid], the IC50 in data set [1] was 7.94 nM. For the same molecule, the “PBMC TOX PXC50” value in data set [2] is given as less than 5.

For the molecule `CC(C)CN(c1ccc([C@H](C)CC(=O)O)cc1Nc1ccc(Cl)cn1)C1CCOCC1` [Example 8, (R)-3-(3-((5-chloropyridin-2-yl)amino)-4-(isobutyl(tetrahydro-2H-pyran-4-yl)amino)phenyl)butanoic Acid], the IC50 in data set [1] was 0.794 nM. The “PBMC TOX PXC50” value in data set [2] is listed as less than 5.

`CO[C@H]1CC[C@H](N(CC(C)C)c2ccc([C@H](C)CC(=O)O)cc2Nc2nc(C(F)(F)F)ns2)CC1` [Example 50, (R)-3-(4-(isobutyl((1r,4R)-4-methoxycyclohexyl)amino)-3-((3-(trifluoromethyl)-1,2,4-thiadiazol-5-yl)amino)phenyl)butanoic Acid]: in data set [1], the IC50 was 1.58 nM. Also, the “PBMC TOX PXC50” value in data set [2] is given as less than 5.

As for `CC(C)CN(CCCCCN)c1ccc([C@H](C)CC(=O)O)cc1Nc1nc(C(F)(F)F)ns1` [example 229, (3R)-3-{4-[(5-aminopentyl)(2-methylpropyl)amino]-3-{[3-(trifluoromethyl)-1,2,4-thiadiazol-5-yl]amino}phenyl}butanoic acid], the IC50 in data set [1] is 50.1 nM. The “PBMC TOX PXC50” value in data set [2] is recorded as less than 5.

For the molecule `CO[C@H]1CC[C@@H](N(CC(C)C)c2ccc([C@H](C)CC(=O)O)cc2Nc2ccc(Cl)cn2)CC1` [Example 47, (R)-3-(3-((5-chloropyridin-2-yl)amino)-4-(isobutyl((1s,4S)-4-methoxycyclohexyl)amino)phenyl)butanoic Acid], in data set [1], the IC50 was 0.794 nM. Further, the “PBMC TOX PXC50” value in data set [2] is less than 5.

With `CC(C)CN(c1ccc([C@H](C)CC(=O)NS(C)(=O)=O)cc1Nc1nc(C(F)(F)F)ns1)C1CCOCC1` [Example 107, (R)-3-(4-(Isobutyl(tetrahydro-2H-pyran-4-yl)amino)-3-((3-(trifluoromethyl)-1,2,4-thiadiazol-5-yl)amino)phenyl)-N-(methylsulfonyl)butanamide], in data set [1], the IC50 is 6.31 nM. In data set [2], the “PBMC TOX PXC50” value turned out to be 5.3.
